Where only a bound is given, the exact number is not on record here.

The results in this text go back to US8048892B2, “Azaquinolone based compounds exhibiting prolyl hydroxylase inhibitory activity, compositions, and uses thereof” (Amgen Inc., priority 2006, dated 2011).

In the test the target is HIF PHD2 (Homo sapiens, UniProt Q9GZT9). Nature of the test: PHD2 inhibition assay (TR-FRET, VCB-Eu detection of hydroxylated P564-HIF1α peptide). It is filed as biochemical. As to conditions: 2 nM PHD2, 100 nM P564-HIF1α peptide, 0.25 μM 2-oxoglutarate. As for the experimental part: Inhibition of HIF PHD2 activity was quantified utilizing the TR-FRET technology. HIF PHD2 catalyzes a hydroxyl modification on the proline residue of the P564-HIF1α peptide substrate (Biotin-DLEMLAPYIPMDDDFQL (SEQ ID NO: 7)) resulting in recognition and binding of the europylated Von Hippel-Lindau protein (pVHL), elongin B and elongin C heterotrimeric (VCB-Eu) complex.
HIF PHD2, sequence (Q9GZT9 whole entry): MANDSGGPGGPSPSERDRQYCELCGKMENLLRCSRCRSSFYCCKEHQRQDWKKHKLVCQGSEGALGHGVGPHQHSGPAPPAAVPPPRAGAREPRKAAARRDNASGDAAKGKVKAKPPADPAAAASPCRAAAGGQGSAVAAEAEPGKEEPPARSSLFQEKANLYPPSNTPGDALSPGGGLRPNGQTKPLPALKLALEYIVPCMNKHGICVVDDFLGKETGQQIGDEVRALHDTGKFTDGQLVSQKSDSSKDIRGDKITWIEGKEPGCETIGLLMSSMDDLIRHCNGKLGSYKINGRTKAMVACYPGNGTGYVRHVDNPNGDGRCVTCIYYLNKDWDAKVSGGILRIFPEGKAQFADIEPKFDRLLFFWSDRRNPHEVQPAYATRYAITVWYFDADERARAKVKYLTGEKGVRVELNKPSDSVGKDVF
The PHD2 inhibition assay was executed by addition of freshly dissolved FeCl2 to 178.57 μM (100 μM final concentration) in PHD2 Reaction Buffer containing 30 mM MES, pH 6, 10 mM NaCl, 0.25% Brij-35, 0.01% BSA, and 1% DMSO. 28 μL of the iron solution and 2 μL of inhibitor compounds serially diluted in 100% DMSO (5% DMSO final) were added to black polypropylene 96-well microtiter plates. To that, 10 μL of 10 nM PHD2 (2 nM final) was added to all wells of the plate except for the 8 wells of column 12 (LO control), and allowed to incubate at room temperature on the shaker for one hour. Column 6 was the HI control containing PHD2 enzyme and 5% DMSO vehicle, but no inhibitor compound. To initiate the PHD2 enzymatic reaction, 10 μL of a solution containing 500 nM P564-HIF1α peptide (100 nM final), 10 mM ascorbic acid (2 mM final), and 1.25 μM 2-oxoglutarate (α-ketoglutarate; 0.25 μM final) in PHD2 Reaction Buffer was added to all wells of the plate and allowed to incubate on the shaker at room temperature for one hour.
The reaction was terminated by addition of 25 μL TR-FRET Buffer (50 mM TRIS-HCl, pH 9, 100 mM NaCl, 0.05% BSA, and 0.5% Tween-20) containing 150 mM succinate (product inhibitor; 50 mM final), 75 nM streptavidin-APC (25 nM final), and 7.5 nM VCB-Eu (2.5 nM final). The TR-FRET detection reagents were placed on a shaker for 1 hour to reach binding equilibrium before reading on the Discovery platform (PerkinElmer). Europium is excited at 315 nm and phosphoresces at 615 nm with a large Stoke's shift. APC, in turn, emits at 655 nm upon excitation at 615 nm. The TR-FRET signal is measured as the ratio of the APC 655 nm signal divided by the internal europium reference 615 nm emission signal.
The POC (percentage of control) was determined by comparing the signal from hydroxylated peptide substrate in the enzyme reaction containing inhibitor compound with that from PHD2 enzyme with DMSO vehicle alone (HI control), and no enzyme (LO control). POC was calculated using the formula: % control (POC)=(cpd−average LO)/(average HI−average LO)*100. Data (consisting of POC and inhibitor concentration in μM) was fitted to a 4-parameter equation (y=A+((B−A)/(1+((x/C)^D))), where A is the minimum y (POC) value, B is the maximum y (POC), C is the x (cpd concentration) at the point of inflection and D is the slope factor) using a Levenburg-Marquardt non-linear regression algorithm.
On the technique in general: In TR-FRET formats the signal depends on donor and acceptor labels being close together.
Consider `Cn1c(=O)c(C(=O)NCC(=O)O)c(O)c2cc(C3CCCCO3)cnc21` (racemic) [Example 68, (R,S)-2-(4-Hydroxy-1-methyl-2-oxo-6-(tetrahydro-2 H-pyran-2-yl)-1,2-dihydro-1,8-naphthyridine-3-carboxamido)acetic acid], for which the IC50 (usually the midpoint of a concentration-inhibition curve) was < 50 nM.
The same measure for `Cn1c(=O)c(C(=O)NCC(=O)O)c(O)c2cc(C3CCCO3)c(C(F)(F)F)nc21` (racemic) [Example 99, (R,S) 2-(4-Hydroxy-1-methyl-2-oxo-6-(tetrahydrofuran-2-yl)-7-(trifluoromethyl)-1,2-dihydro-1,8-naphthyridine-3-carboxamido)acetic acid]: < 50 nM; for `Cn1c(=O)c(C(=O)NCC(=O)O)c(O)c2cc(C3CCOC3)c(C(F)(F)F)nc21` (racemic) [Example 100, (R,S) 2-(4-Hydroxy-1-methyl-2-oxo-6-(tetrahydrofuran-3-yl)-7-(trifluoromethyl)-1,2-dihydro-1,8-naphthyridine-3-carboxamido)acetic acid]: < 50 nM.
Consider `Cn1c(=O)c(C(=O)NCC(=O)O)c(O)c2cc(C3CCCCO3)cnc21` (single isomer, unassigned) [Example 69, (R)-2-(4-hydroxy-1-methyl-2-oxo-6-(tetrahydro-2 H-pyran-2-yl)-1,2-dihydro-1,8-naphthyridine-3-carboxamido)acetic acid or (S)-2-(4-hydroxy-1-methyl-2-oxo-6-(tetrahydro-2 H-pyran-2-yl)-1,2-dihydro-1,8-naphthyridine-3-carboxamido)acetic acid], for which the 50% inhibitory concentration (IC50) fell in the range of 50 to 100 nM.
`Cn1c(=O)c(C(=O)NCC(=O)O)c(O)c2cc(C3CCCCO3)cnc21` (single isomer, unassigned) [Example 70, (R)-2-(4-Hydroxy-1-methyl-2-oxo-6-(tetrahydro-2 H-pyran-2-yl)-1,2-dihydro-1,8-naphthyridine-3-carboxamido)acetic acid or (S)-2-(4-Hydroxy-1-methyl-2-oxo-6-(tetrahydro-2 H-pyran-2-yl)-1,2-dihydro-1,8-naphthyridine-3-carboxamido)acetic acid] showed a half-inhibitory concentration (IC50) of 50 to 100 nM.
The same measure for `Cn1c(=O)c(C(=O)NCC(=O)O)c(O)c2cc(C3CCCO3)c(C(F)(F)F)nc21` (single isomer, unassigned) [Example 101, (R)-2-(4-Hydroxy-1-methyl-2-oxo-6-(tetrahydrofuran-2-yl)-7-(trifluoromethyl)-1,2-dihydro-1,8-naphthyridine-3-carboxamido)acetic acid or (S)-2-(4-Hydroxy-1-methyl-2-oxo-6-(tetrahydrofuran-2-yl)-7-(trifluoromethyl)-1,2-dihydro-1,8-naphthyridine-3-carboxamido)acetic acid]: < 50 nM; for `Cn1c(=O)c(C(=O)NCC(=O)O)c(O)c2cc(C3CCCO3)c(C(F)(F)F)nc21` (single isomer, unassigned) [Example 102, (R)-2-(4-Hydroxy-1-methyl-2-oxo-6-(tetrahydrofuran-2-yl)-7-(trifluoromethyl)-1,2-dihydro-1,8-naphthyridine-3-carboxamido)acetic acid or (S)-2-(4-Hydroxy-1-methyl-2-oxo-6-(tetrahydrofuran-2-yl)-7-(trifluoromethyl)-1,2-dihydro-1,8-naphthyridine-3-carboxamido)acetic acid]: 50 to 100 nM; for `Cn1c(=O)c(C(=O)NCC(=O)O)c(O)c2cc(C3CCOC3)c(C(F)(F)F)nc21` (single isomer, unassigned) [Example 103, (R)-2-(4-Hydroxy-1-methyl-2-oxo-6-(tetrahydrofuran-3-yl)-7-(trifluoromethyl)-1,2-dihydro-1,8-naphthyridine-3-carboxamido)acetic acid or (S)-2-(4-Hydroxy-1-methyl-2-oxo-6-(tetrahydrofuran-3-yl)-7-(trifluoromethyl)-1,2-dihydro-1,8-naphthyridine-3-carboxamido)acetic acid]: < 50 nM.
In the case of `Cn1c(=O)c(C(=O)NCC(=O)O)c(O)c2cc(C3CCOC3)c(C(F)(F)F)nc21` (single isomer, unassigned) [Example 104, (R)-2-(4-Hydroxy-1-methyl-2-oxo-6-(tetrahydrofuran-3-yl)-7-(trifluoromethyl)-1,2-dihydro-1,8-naphthyridine-3-carboxamido)acetic acid or (S)-2-(4-Hydroxy-1-methyl-2-oxo-6-(tetrahydrofuran-3-yl)-7-(trifluoromethyl)-1,2-dihydro-1,8-naphthyridine-3-carboxamido)acetic acid] it was 50 to 100 nM.
With `Cn1c(=O)c(C(=O)NCC(=O)O)c(O)c2ncc(Br)cc21` [Example 1, N-((7-Bromo-4-hydroxy-1-methyl-2-oxo-1,2-dihydro-1,5-naphthyridin-3-yl)carbonyl)glycine], the IC50 is < 50 nM.
Regarding `Cn1c(=O)c(C(=O)NCC(=O)O)c(O)c2ncc(-c3cccs3)cc21` [Example 2, 2-(4-Hydroxy-1-methyl-2-oxo-7-(thiophen-2-yl)-1,2-dihydro-1,5-naphthyridine-3-carboxamido)acetic acid], the concentration for half-maximal inhibition (IC50) was < 50 nM.
`Cn1c(=O)c(C(=O)NCC(=O)O)c(O)c2ncc(-c3ccccc3)cc21` [Example 3, 2-(4-Hydroxy-1-methyl-2-oxo-7-phenyl-1,2-dihydro-1,5-naphthyridine-3-carboxamido)acetic acid]: the half-maximal inhibitory concentration (IC50) was in the range of 50 to 100 nM.
Consider `Cn1c(=O)c(C(=O)NCC(=O)O)c(O)c2ncc(C3=CCCC3)cc21` [Example 4, 2-(7-Cyclopentenyl-4-hydroxy-1-methyl-2-oxo-1,2-dihydro-1,5-naphthyridine-3-carboxamido)acetic acid], for which the IC50 was < 50 nM.
On to `Cn1c(=O)c(C(=O)NCC(=O)O)c(O)c2ncc(C3CCCC3)cc21` [Example 5, 2-(7-Cyclopentyl-4-hydroxy-1-methyl-2-oxo-1,2-dihydro-1,5-naphthyridine-3-carboxamido)acetic acid], for which the IC50 was < 50 nM.
In the case of `Cn1c(=O)c(C(=O)NCC(=O)O)c(O)c2ncc(C#N)cc21` [Example 6, 2-(7-Cyano-4-hydroxy-1-methyl-2-oxo-1,2-dihydro-1,5-naphthyridine-3-carboxamido)acetic acid] it was < 50 nM.
As for `C#Cc1cnc2c(O)c(C(=O)NCC(=O)O)c(=O)n(C)c2c1` [Example 7, 2-(7-Ethynyl-4-hydroxy-1-methyl-2-oxo-1,2-dihydro-1,5-naphthyridine-3-carboxamido)acetic acid], the IC50 is < 50 nM.
Turning to `CC#Cc1cnc2c(O)c(C(=O)NCC(=O)O)c(=O)n(C)c2c1` [Example 8, 2-(4-Hydroxy-1-methyl-2-oxo-7-(prop-1-ynyl)-1,2-dihydro-1,5-naphthyridine-3-carboxamido)acetic acid], the IC50 fell in the range of 50 to 100 nM.
The same measure for `CC(C)C#Cc1cnc2c(O)c(C(=O)NCC(=O)O)c(=O)n(C)c2c1` [Example 9, 2-(4-Hydroxy-1-methyl-7-(3-methylbut-1-ynyl)-2-oxo-1,2-dihydro-1,5-naphthyridine-3-carboxamido)acetic acid]: < 50 nM.
The same measure for `COCC#Cc1cnc2c(O)c(C(=O)NCC(=O)O)c(=O)n(C)c2c1` [Example 10, 2-(4-Hydroxy-7-(3-methoxyprop-1-ynyl)-1-methyl-2-oxo-1,2-dihydro-1,5-naphthyridine-3-carboxamido)acetic acid]: < 50 nM; for `Cn1c(=O)c(C(=O)NCC(=O)O)c(O)c2ccc(Br)nc21` [Example 11, 2-(7-Bromo-4-hydroxy-1-methyl-2-oxo-1,2-dihydro-1,8-naphthyridine-3-carboxamido)acetic acid]: < 50 nM.
Consider `Cn1c(=O)c(C(=O)NCC(=O)O)c(O)c2ccc(-c3ccccc3)nc21` [Example 12, 2-(4-Hydroxy-1-methyl-2-oxo-7-phenyl-1,2-dihydro-1,8-naphthyridine-3-carboxamido)acetic acid], for which the IC50 was < 50 nM.
Regarding `Cn1c(=O)c(C(=O)NCC(=O)O)c(O)c2ccc(C3=CCCCC3)nc21` [Example 13, 2-(7-Cyclohexenyl-4-hydroxy-1-methyl-2-oxo-1,2-dihydro-1,8-naphthyridine-3-carboxamido)acetic acid], the IC50 was < 50 nM.
